Experimental data as given in ChEMBL document CHEMBL1201862, “PubChem BioAssay data set” (2004).
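Test compounds were applied to cells in 96-well plates for 48 hours at 5 doses. GI50 = concentration required for 50% inhibition of growth.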 Calls of active or inactive are those of the source. Cut-off read from the data, not from the text of the source: active = GI50 up to about 1.1 µM and inactive = higher.

Legend:
Assay in all cases: inhibition of tumour cell growth, NCI panel, 48 h
MDA-MB-231 = system: MDA-MB-231
OVCAR-4 = system: OVCAR-4
HL-60 = system: HL-60
SF-539 = system: SF-539
MCF7 = system: MCF7
CAKI-1 = system: CAKI-1
NCI-H460 = system: NCI-H460
HCT-15 = system: HCT-15
MDA-N = system: MDA-N
SF-268 = system: SF-268
SK-MEL-28 = system: SK-MEL-28
HCT-116 = system: HCT-116
EKVX = system: EKVX
MDA-MB-435 = system: MDA-MB-435
COLO 205 = system: COLO 205
TK-10 = system: TK-10
HOP-92 = system: HOP-92
786-0 = system: 786-0
NCI/ADR-RES = system: NCI/ADR-RES
SR = system: SR

Structure (SMILES): OCC(O)C(O)C(O)C(O)c1nc2cc(Cl)ccc2[nH]1 (stereo not drawn)
- GI50 (MDA-MB-231): > 100 µM (inactive)
- GI50 (OVCAR-4): > 100 µM (inactive)
- GI50 (HL-60): 2.14 µM (inactive)
- GI50 (SF-539): > 100 µM (inactive)
- GI50 (MCF7): > 100 µM (inactive)
- GI50 (CAKI-1): > 100 µM (inactive)
- GI50 (NCI-H460): > 100 µM (inactive)
- GI50 (HCT-15): > 100 µM
- GI50 (MDA-N): > 100 µM (inactive)
- GI50 (SF-268): > 100 µM (inactive)
- GI50 (SK-MEL-28): > 100 µM (inactive)
- GI50 (HCT-116): > 100 µM (inactive)
- GI50 (EKVX): > 100 µM (inactive)
- GI50 (MDA-MB-435): > 100 µM (inactive)
- GI50 (COLO 205): > 100 µM (inactive)
- GI50 (TK-10): > 100 µM (inactive)
- GI50 (HOP-92): > 100 µM (inactive)
- GI50 (786-0): > 100 µM (inactive)
- GI50 (NCI/ADR-RES): > 100 µM (inactive)

Structure (SMILES): NC1=NC(=O)[C@H](CSCc2ccccc2)N1C(=O)OCc1ccccc1
- GI50 (MDA-MB-231): > 100 µM (inactive)
- GI50 (OVCAR-4): > 100 µM (inactive)
- GI50 (HL-60): > 100 µM (inactive)
- GI50 (MCF7): > 100 µM (inactive)
- GI50 (CAKI-1): > 100 µM (inactive)
- GI50 (NCI-H460): > 100 µM (inactive)
- GI50 (SR): > 100 µM (inactive)
- GI50 (HCT-15): > 100 µM
- GI50 (MDA-N): > 100 µM (inactive)
- GI50 (SF-268): > 100 µM (inactive)
- GI50 (HCT-116): > 100 µM (inactive)
- GI50 (EKVX): > 100 µM (inactive)
- GI50 (MDA-MB-435): > 100 µM (inactive)
- GI50 (COLO 205): > 100 µM (inactive)
- GI50 (TK-10): > 100 µM (inactive)
- GI50 (786-0): > 100 µM (inactive)
- GI50 (NCI/ADR-RES): > 100 µM (inactive)

Structure (SMILES): Cc1[nH]c(-c2ccccc2)c(-c2ccc(Cl)cc2)c1C(=O)ONC(=O)c1ccccc1
- GI50 (MDA-MB-231): 3.64 µM (inactive)
- GI50 (OVCAR-4): 2.62 µM (inactive)
- GI50 (HL-60): 1.5 µM (inactive)
- GI50 (SF-539): 2.22 µM (inactive)
- GI50 (MCF7): 11.9 µM (inactive)
- GI50 (CAKI-1): 2.44 µM (inactive)
- GI50 (NCI-H460): 2.11 µM (inactive)
- GI50 (HCT-15): 6.17 µM
- GI50 (MDA-N): 2 µM (inactive)
- GI50 (SF-268): 2.34 µM (inactive)
- GI50 (SK-MEL-28): 8.38 µM (inactive)
- GI50 (HCT-116): 2.11 µM (inactive)
- GI50 (EKVX): 3.07 µM (inactive)
- GI50 (MDA-MB-435): 2.47 µM (inactive)
- GI50 (COLO 205): 5.93 µM (inactive)
- GI50 (TK-10): 2.81 µM (inactive)
- GI50 (HOP-92): 1.77 µM (inactive)
- GI50 (786-0): 1.9 µM (inactive)
- GI50 (NCI/ADR-RES): 3.23 µM (inactive)

Structure (SMILES): CCCc1cc(=O)oc2c3c(c4c(c12)OC(C)(C)C=C4)O[C@@H](C)[C@H](C)C3=O
- GI50 (MDA-MB-231): 11.8 µM (inactive)
- GI50 (HL-60): 4.99 µM (inactive)
- GI50 (SF-539): 17.7 µM (inactive)
- GI50 (MCF7): 17.6 µM (inactive)
- GI50 (CAKI-1): 28.9 µM (inactive)
- GI50 (NCI-H460): 15.8 µM (inactive)
- GI50 (SR): 10.2 µM (inactive)
- GI50 (HCT-15): 15 µM
- GI50 (MDA-N): 17.3 µM (inactive)
- GI50 (SF-268): 17.1 µM (inactive)
- GI50 (SK-MEL-28): 13 µM (inactive)
- GI50 (HCT-116): 10.4 µM (inactive)
- GI50 (EKVX): 12.2 µM (inactive)
- GI50 (MDA-MB-435): 21.9 µM (inactive)
- GI50 (COLO 205): 18.6 µM (inactive)
- GI50 (TK-10): 20.7 µM (inactive)
- GI50 (786-0): 16.9 µM (inactive)
- GI50 (NCI/ADR-RES): 12.5 µM (inactive)

Structure (SMILES): COC(=O)[C@@H]1CN(C(C)=O)C(=O)N1
- GI50 (MDA-MB-231): 5.06 µM (inactive)
- GI50 (OVCAR-4): > 100 µM (inactive)
- GI50 (HL-60): > 100 µM (inactive)
- GI50 (SF-539): > 100 µM (inactive)
- GI50 (CAKI-1): > 100 µM (inactive)
- GI50 (NCI-H460): > 100 µM (inactive)
- GI50 (HCT-15): > 100 µM
- GI50 (MDA-N): > 100 µM (inactive)
- GI50 (SF-268): > 100 µM (inactive)
- GI50 (SK-MEL-28): > 100 µM (inactive)
- GI50 (HCT-116): > 100 µM (inactive)
- GI50 (EKVX): > 100 µM (inactive)
- GI50 (MDA-MB-435): > 100 µM (inactive)
- GI50 (COLO 205): > 100 µM (inactive)
- GI50 (TK-10): > 100 µM (inactive)
- GI50 (HOP-92): > 100 µM (inactive)
- GI50 (786-0): > 100 µM (inactive)
- GI50 (NCI/ADR-RES): > 100 µM (inactive)

Structure (SMILES): CC(C)CNc1nc(N)nc(O)c1NC=O
- GI50 (MDA-MB-231): > 100 µM (inactive)
- GI50 (OVCAR-4): > 100 µM (inactive)
- GI50 (HL-60): > 100 µM (inactive)
- GI50 (SF-539): > 100 µM (inactive)
- GI50 (MCF7): > 100 µM (inactive)
- GI50 (CAKI-1): > 100 µM (inactive)
- GI50 (NCI-H460): > 100 µM (inactive)
- GI50 (HCT-15): > 100 µM
- GI50 (MDA-N): > 100 µM (inactive)
- GI50 (SF-268): > 100 µM (inactive)
- GI50 (SK-MEL-28): > 100 µM (inactive)
- GI50 (HCT-116): > 100 µM (inactive)
- GI50 (EKVX): > 100 µM (inactive)
- GI50 (MDA-MB-435): > 100 µM (inactive)
- GI50 (COLO 205): > 100 µM (inactive)
- GI50 (TK-10): > 100 µM (inactive)
- GI50 (HOP-92): > 100 µM (inactive)
- GI50 (786-0): > 100 µM (inactive)
- GI50 (NCI/ADR-RES): > 100 µM (inactive)

Structure (SMILES): NC(=O)c1ccc(NS(=O)(=O)c2ccc(N)cc2)nc1
- GI50 (MDA-MB-231): > 100 µM (inactive)
- GI50 (OVCAR-4): > 100 µM (inactive)
- GI50 (HL-60): > 100 µM (inactive)
- GI50 (MCF7): > 100 µM (inactive)
- GI50 (CAKI-1): > 100 µM (inactive)
- GI50 (NCI-H460): > 100 µM (inactive)
- GI50 (HCT-15): > 100 µM
- GI50 (MDA-N): > 100 µM (inactive)
- GI50 (SF-268): > 100 µM (inactive)
- GI50 (SK-MEL-28): > 100 µM (inactive)
- GI50 (HCT-116): > 100 µM (inactive)
- GI50 (EKVX): > 100 µM (inactive)
- GI50 (MDA-MB-435): > 100 µM (inactive)
- GI50 (COLO 205): > 100 µM (inactive)
- GI50 (TK-10): > 100 µM (inactive)
- GI50 (HOP-92): > 100 µM (inactive)
- GI50 (786-0): > 100 µM (inactive)
- GI50 (NCI/ADR-RES): > 100 µM (inactive)
